Tested on: isolated human pDCs
Assay: P. falciparum nuclear extract-induced IFNα production in human pDCs
Type: cell-based
Settings: for IFNα level: nuclear extract
Protocol: Human PBMCs were prepared using Buffy Coats as source material from healthy donations (approx. 50 ml obtained from Blutspendezentrum SRK Basel) and processed as indicated above. Fresh PBMCs were resuspended and diluted in RoboSep™ buffer (PBS containing 2% v/v FBS, 1 mM EDTA (Gibco #15575-038) to obtain a final concentration of 50×10^6 PBMCs/ml. Human pDCs (negative selection) were isolated using plasmacytoid DC Enrichment kit (Stemcell, #19062) using an automation RobSep™ station as described according to manufacturer protocols. Typical pDC yields were approx. 0.1% of total PBMCs and with a purity>90%. Isolated pDCs were diluted to 4×10^5 cells/ml and seeded in 384-well plates (#353962; Becton Dickinson AG) to give a final volume of 25 μl (i.e. 1×10^4 cells/well). For stimulation using malaria nuclear extact (see below), pDCs were seeded at a final concentration of 5×10^4 cells/well.
The preparation of the nuclear extract of plasmodium falciparum was performed according to Gowda et al [Gowda et al. “The Nucleosome (Histone-DNA Complex) Is the TLR9-Specific Immunostimulatory Component of Plasmodium falciparum That Activates DCs”, PLoS ONE 2011]. In brief, Plasmodium falciparum 3D7 parasites were cultured in human red blood cell at 2% hematocrit. When the parasite was at late trophozoite and schizont stages, the infected red blood cells (IRBCs) were harvested by centrifugation and the pellets were re-suspended in 20 volumes of 0.1% saponin (m/v) in PBS, pH 7.2. The re-suspension was incubated on ice for 10 minutes and centrifuged at 2,500 g at 4° C. for 15 min. The pellet was re-suspended in the above solution, incubated on ice for 10 min and centrifuged at 2,500 g at 4° C. for 15 min. The parasite pellet thus obtained was washed 3 times with cold PBS, pH 7.2, by centrifugation. Each time 35 ml of cold PBS was used. The pellet obtained after the last centrifugation was suspended in 10 volumes of lysis buffer (20 mM HEPES, pH 7.5, 10 mM KCl, 1 mM EDTA, 1 mM dithiothreitol, 1 mM phenylmethylsulfonyl fluoride (PMSF) and 1% Triton X-100) and incubated on ice for 5 min. The suspension was centrifuged at 5,000 g at 4° C. for 10 min, and nuclear material was washed three times with the lysis buffer to remove membrane components. The nuclear material was re-suspended in PBS, pH 7.2. Insoluble material was subsequently solubilized by using a water-bath sonicator.
Compounds were pre-diluted in 100% v/v DMSO (#41640-100 mL; Sigma-Aldrich), followed by transfer in Media (to achieve a final DMSO concentration of 0.25%). Cells were treated with appropriate compound dilution (5 μl) or vehicle control (5 μl) and incubated for 30 min at 37° C. in a humidified incubator in air with 5% (v/v) CO2. Cells were stimulated with CpG2216 (0.3 μM; #tlrl-hodna; Invivogen), malaria nuclear extract (2.5 μg/ml; see above for preparation) or vehicle control (10 μl/well) and incubated for 20 h. Plates were briefly centrifuged (200×g for 2 min at 22° C.) and supernatant samples (30 μl) removed for quantification of IFNα levels.
For quantification of IFNalpha the human interferon AlphaLISA Kit (#AL264F) from PerkinElmer was used. An antibody mix containing anti-IFNα acceptor beads (5 μg/ml final) and biotinylated antibody anti-IFNα(0.5 nM final) is prepared fresh and dispensed (5 μl) into 384-well Optiplates™ (#6007299; PerkinElmer). Dilution of known IFNα standards (human IFNα B (2b)) were prepared and together with cell supernatants (5 μl) were added to plates above. Plates were briefly centrifuged (pulse at 200 g), covered with adhesive sealing film, vortexed and incubated 1 h at room temperature in the dark. Streptavidin-coated donor beads (20 μg/ml final) was prepared and added to each well (5 μl) in a dark lit area (light sensitive mix). Plates were incubated 30 min at room temperature (Plates must not be centrifuged or covered). […]

SMILES: CCC(=O)N1CC[C@H](Nc2ncnc3c2CN(c2cnc(OC)c(C(F)(F)F)c2)CC3)C1 [Example 67, 1-{(S)-3-[6-(6-Methoxy-5-trifluoromethyl-pyridin-3-yl)-5,6,7,8-tetrahydro-pyrido[4,3-d]pyrimidin-4-ylamino]-pyrrolidin-1-yl}-propan-1-one]
- inhibition at 0.01 µM (compound 0.01 μM, read-out: % inh. of IFNα by nuclear extract): 25%
- inhibition at 0.1 µM (compound 0.1 μM, read-out: % inh. of IFNα by nuclear extract): 64%
- inhibition at 1 µM (compound 1 μM, read-out: % inh. of IFNα by nuclear extract): 77%
- IFNα level (compound 0.01 μM): 4084 pg/mL
- IFNα level (compound 0.1 μM): 2110 pg/mL
- IFNα level (compound 1 μM): 1483 pg/mL
